Measurements taken from patent US5358951A, “Angiotensin II receptor blocking 2, 3, 6 substituted quinazolinones” (American Cyanamid Company, priority 1993, dated 1994).

System: vasopressor response of angiotensin II
Assay: AII Challenge: antagonism of angiotensin II vasopressor response;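 as to Response Average Change: post-dose Angiotensin II-evoked rise in systolic blood pressure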
Format: in vivo
Conditions: for inhibition in vivo at 3 mg/kg / inhibition in vivo at 10 mg/kg / inhibition in vivo at 5 mg/kg: Rattus norvegicus; for inhibition in vivo at 3 mg/kg / inhibition in vivo at 10 mg/kg: iv; for inhibition in vivo at 5 mg/kg: po
Method in brief: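 Conscious male SHR (16-20 weeks) with aortic and caval cannulae received angiotensin II at 0.05 and 0.1 ug/kg i.v. before and 30-300 min after compound dosing (i.v., i.p. or oral). Blockade is expressed as % of each rat's predose rise in systolic pressure.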

[1] = 0.5 h, 3 mg/kg I.V., AII 0.05 mcg/kg IV, 30 min post dose
[2] = 0.5 h, 3 mg/kg I.V., AII 0.1 mcg/kg IV, 30 min post dose
[3] = 1 h, 3 mg/kg I.V., AII 0.05 mcg/kg IV, 60 min post dose
[4] = 1 h, 3 mg/kg I.V., AII 0.1 mcg/kg IV, 60 min post dose
[5] = 2 h, 3 mg/kg I.V., AII 0.05 mcg/kg IV, 120 min post dose
[6] = 2 h, 3 mg/kg I.V., AII 0.1 mcg/kg IV, 120 min post dose
[7] = 3 h, 3 mg/kg I.V., AII 0.1 mcg/kg IV, 180 min post dose
[8] = […], 3 mg/kg I.V., AII 0.05 mcg/kg IV, 90 min post dose

For `CCCCc1nc2ccc([C@@H]3C[C@H]4CCCCN4O3)cc2c(=O)n1Cc1ccc(-c2ccccc2-c2nnn[nH]2)cc1` (relative stereo) [Example 60, (Cis)-2-Butyl-6-(hexahydro-2H-isoxazolo[2,3-a]pyridin-2-yl)-3-[[2'-(1H-tetrazol-5-yl)-[1,1'-biphenyl]-4-yl]methyl]-4(3H)-quinazolinone], the “Response Average Change” value (3 mg/kg I.V., AII 0.05 mcg/kg IV, 240 min post dose) was 15 mmHg, the “Response Average Change” value (3 mg/kg I.V., AII 0.05 mcg/kg IV, 300 min post dose) was 15 mmHg and the “Response Average Change” value (3 mg/kg I.V., AII 0.1 mcg/kg IV, 240 min post dose) was 18.5 mmHg. The “Response Average Change” value (3 mg/kg I.V., AII 0.1 mcg/kg IV, 300 min post dose) was 30 mmHg, the “Response Average Change” value (10 mg/kg I.V., AII 0.05 mcg/kg IV, 30 min post dose) was 0 mmHg and the “Response Average Change” value (10 mg/kg I.V., AII 0.05 mcg/kg IV, 60 min post dose) was 7.5 mmHg. The “Response Average Change” value (10 mg/kg I.V., AII 0.05 mcg/kg IV, 90 min post dose) was 14 mmHg, the “Response Average Change” value (10 mg/kg I.V., AII 0.05 mcg/kg IV, 120 min post dose) was 9.5 mmHg and the “Response Average Change” value (10 mg/kg I.V., AII 0.05 mcg/kg IV, 180 min post dose) was 12.5 mmHg. For the same molecule, the “Response Average Change” value (10 mg/kg I.V., AII 0.05 mcg/kg IV, 240 min post dose) was 17 mmHg, the “Response Average Change” value (10 mg/kg I.V., AII 0.05 mcg/kg IV, 300 min post dose) was 12.5 mmHg and the “Response Average Change” value (10 mg/kg I.V., AII 0.1 mcg/kg IV, 30 min post dose) was 0 mmHg. For the same molecule, the “Response Average Change” value (10 mg/kg I.V., AII 0.1 mcg/kg IV, 60 min post dose) was 7.5 mmHg, the “Response Average Change” value (10 mg/kg I.V., AII 0.1 mcg/kg IV, 90 min post dose) was 15 mmHg and the “Response Average Change” value (10 mg/kg I.V., AII 0.1 mcg/kg IV, 120 min post dose) was 12.5 mmHg. The “Response Average Change” value (10 mg/kg I.V., AII 0.1 mcg/kg IV, 180 min post dose) was 21.5 mmHg, the “Response Average Change” value (10 mg/kg I.V., AII 0.1 mcg/kg IV, 240 min post dose) was 12.5 mmHg and the “Response Average Change” value (10 mg/kg I.V., AII 0.1 mcg/kg IV, 300 min post dose) was 22.5 mmHg. For the same molecule, the inhibition in vivo at 3 mg/kg [1] was 80%, the inhibition in vivo at 3 mg/kg [2] was 69% and the inhibition in vivo at 10 mg/kg (0.5 h, 10 mg/kg I.V., AII 0.05 mcg/kg IV, 30 min post dose) was 100%. It also gave an inhibition in vivo at 10 mg/kg (0.5 h, 10 mg/kg I.V., AII 0.1 mcg/kg IV, 30 min post dose) of 100%, an inhibition in vivo at 3 mg/kg [3] of 73% and an inhibition in vivo at 3 mg/kg [4] of 79%. For the same molecule, the inhibition in vivo at 10 mg/kg (1 h, 10 mg/kg I.V., AII 0.05 mcg/kg IV, 60 min post dose) was 82%, the inhibition in vivo at 10 mg/kg (1 h, 10 mg/kg I.V., AII 0.1 mcg/kg IV, 60 min post dose) was 85% and the inhibition in vivo at 3 mg/kg [5] was 73%. For the same molecule, the inhibition in vivo at 3 mg/kg [6] was 56%, the inhibition in vivo at 10 mg/kg (2 h, 10 mg/kg I.V., AII 0.05 mcg/kg IV, 120 min post dose) was 77% and the inhibition in vivo at 10 mg/kg (2 h, 10 mg/kg I.V., AII 0.1 mcg/kg IV, 120 min post dose) was 74%. It also gave an inhibition in vivo at 3 mg/kg [7] of 44%, an inhibition in vivo at 10 mg/kg (3 h, 10 mg/kg I.V., AII 0.05 mcg/kg IV, 180 min post dose) of 70% and an inhibition in vivo at 10 mg/kg (3 h, 10 mg/kg I.V., AII 0.1 mcg/kg IV, 180 min post dose) of 56%. For the same molecule, the inhibition in vivo at 3 mg/kg (4 h, 3 mg/kg I.V., AII 0.05 mcg/kg IV, 240 min post dose) was 59%, the inhibition in vivo at 3 mg/kg (4 h, 3 mg/kg I.V., AII 0.1 mcg/kg IV, 240 min post dose) was 49% and the inhibition in vivo at 10 mg/kg (4 h, 10 mg/kg I.V., AII 0.05 mcg/kg IV, 240 min post dose) was 59%. The inhibition in vivo at 10 mg/kg (4 h, 10 mg/kg I.V., AII 0.1 mcg/kg IV, 240 min post dose) was 74%, the inhibition in vivo at 3 mg/kg (5 h, 3 mg/kg I.V., AII 0.05 mcg/kg IV, 300 min post dose) was 59% and the inhibition in vivo at 3 mg/kg (5 h, 3 mg/kg I.V., AII 0.1 mcg/kg IV, 300 min post dose) was 18%. For the same molecule, the inhibition in vivo at 10 mg/kg (5 h, 10 mg/kg I.V., AII 0.05 mcg/kg IV, 300 min post dose) was 70%, the inhibition in vivo at 10 mg/kg (5 h, 10 mg/kg I.V., AII 0.1 mcg/kg IV, 300 min post dose) was 54% and the inhibition in vivo at 3 mg/kg [8] was 73%. It also gave an inhibition in vivo at 10 mg/kg ([…], 10 mg/kg I.V., AII 0.05 mcg/kg IV, 90 min post dose) of 66% and an inhibition in vivo at 10 mg/kg ([…], 10 mg/kg I.V., AII 0.1 mcg/kg IV, 90 min post dose) of 69%.

In the case of `CCCCc1nc2ccc([C@@H]3C[C@H]4CCC(C)(C)N4O3)cc2c(=O)n1Cc1ccc(-c2ccccc2-c2nnn[nH]2)cc1` (relative stereo) [Example 61, (Cis)-2-Butyl-6-(hexahydro-6,6-dimethylpyrrolo[1,2-b]isoxazol-2-yl)-3-[[2'-(1H-tetrazol-5-yl][1,1'-biphenyl]-4-yl]methyl]-4(3H)-quinazolinone], the “Response Average Change” value (3 mg/kg I.V., AII 0.05 mcg/kg IV, 30 min post dose) is reported as 7.5 mmHg, the “Response Average Change” value (3 mg/kg I.V., AII 0.05 mcg/kg IV, 60 min post dose) is reported as 10 mmHg and the “Response Average Change” value (3 mg/kg I.V., AII 0.05 mcg/kg IV, 90 min post dose) is reported as 6 mmHg. For the same molecule, the “Response Average Change” value (3 mg/kg I.V., AII 0.05 mcg/kg IV, 120 min post dose) was 13.5 mmHg, the “Response Average Change” value (3 mg/kg I.V., AII 0.05 mcg/kg IV, 180 min post dose) was 15 mmHg and the “Response Average Change” value (3 mg/kg I.V., AII 0.1 mcg/kg IV, 30 min post dose) was 7.5 mmHg. The “Response Average Change” value (3 mg/kg I.V., AII 0.1 mcg/kg IV, 60 min post dose) was 12.5 mmHg, the “Response Average Change” value (3 mg/kg I.V., AII 0.1 mcg/kg IV, 90 min post dose) was 3.5 mmHg and the “Response Average Change” value (3 mg/kg I.V., AII 0.1 mcg/kg IV, 120 min post dose) was 15 mmHg. For the same molecule, the “Response Average Change” value (3 mg/kg I.V., AII 0.1 mcg/kg IV, 180 min post dose) was 16 mmHg, the “Response Average Change” value (5 mg/kg P.O., AII 0.05 mcg/kg IV, 30 min post dose) was 27.5 mmHg and the “Response Average Change” value (5 mg/kg P.O., AII 0.05 mcg/kg IV, 60 min post dose) was 29 mmHg. The “Response Average Change” value (5 mg/kg P.O., AII 0.05 mcg/kg IV, 90 min post dose) was 30 mmHg, the “Response Average Change” value (5 mg/kg P.O., AII 0.05 mcg/kg IV, 120 min post dose) was 22.5 mmHg and the “Response Average Change” value (5 mg/kg P.O., AII 0.05 mcg/kg IV, 180 min post dose) was 35 mmHg. For the same molecule, the “Response Average Change” value (5 mg/kg P.O., AII 0.1 mcg/kg IV, 30 min post dose) was 32.5 mmHg, the “Response Average Change” value (5 mg/kg P.O., AII 0.1 mcg/kg IV, 60 min post dose) was 35 mmHg and the “Response Average Change” value (5 mg/kg P.O., AII 0.1 mcg/kg IV, 90 min post dose) was 29 mmHg. The “Response Average Change” value (5 mg/kg P.O., AII 0.1 mcg/kg IV, 120 min post dose) was 30 mmHg, the “Response Average Change” value (5 mg/kg P.O., AII 0.1 mcg/kg IV, 180 min post dose) was 35 mmHg and the inhibition in vivo at 3 mg/kg [1] was 83%. The inhibition in vivo at 3 mg/kg [2] was 84%, the inhibition in vivo at 3 mg/kg [3] was 78% and the inhibition in vivo at 3 mg/kg [4] was 73%. The inhibition in vivo at 3 mg/kg [5] was 70%, the inhibition in vivo at 3 mg/kg [6] was 67% and the inhibition in vivo at 3 mg/kg (3 h, 3 mg/kg I.V., AII 0.05 mcg/kg IV, 180 min post dose) was 67%. It also gave an inhibition in vivo at 3 mg/kg [7] of 65%, an inhibition in vivo at 3 mg/kg [8] of 87% and an inhibition in vivo at 3 mg/kg ([…], 3 mg/kg I.V., AII 0.1 mcg/kg IV, 90 min post dose) of 92%. For the same molecule, the inhibition in vivo at 5 mg/kg (0.5 h, 5 mg/kg P.O., AII 0.05 mcg/kg IV, 30 min post dose) was 40%, the inhibition in vivo at 5 mg/kg (0.5 h, 5 mg/kg P.O., AII 0.1 mcg/kg IV, 30 min post dose) was 31% and the inhibition in vivo at 5 mg/kg (1 h, 5 mg/kg P.O., AII 0.05 mcg/kg IV, 60 min post dose) was 37%. For the same molecule, the inhibition in vivo at 5 mg/kg (1 h, 5 mg/kg P.O., AII 0.1 mcg/kg IV, 60 min post dose) was 26%, the inhibition in vivo at 5 mg/kg (2 h, 5 mg/kg P.O., AII 0.05 mcg/kg IV, 120 min post dose) was 51% and the inhibition in vivo at 5 mg/kg (2 h, 5 mg/kg P.O., AII 0.1 mcg/kg IV, 120 min post dose) was 36%. For the same molecule, the inhibition in vivo at 5 mg/kg (3 h, 5 mg/kg P.O., AII 0.05 mcg/kg IV, 180 min post dose) was 24%, the inhibition in vivo at 5 mg/kg (3 h, 5 mg/kg P.O., AII 0.1 mcg/kg IV, 180 min post dose) was 26% and the inhibition in vivo at 5 mg/kg ([…], 5 mg/kg P.O., AII 0.05 mcg/kg IV, 90 min post dose) was 35%. It also gave an inhibition in vivo at 5 mg/kg ([…], 5 mg/kg P.O., AII 0.1 mcg/kg IV, 90 min post dose) of 38%.
